Target: T1, ΔF508-CFTR (Homo sapiens, UniProt P13569, DEL508-508)
T1 construct: expressed in transfected cells
Experiment: Membrane potential optical (FRET/VIPR) assay, identification of potentiator compounds
Format: cell-based
Conditions: Table 3, assay not given; for % Activity: relative efficacy
Text: I) Membrane Potential Optical Methods for Assaying ΔF508-CFTR Modulation Properties of Compounds The optical membrane potential assay utilized voltage-sensitive FRET sensors described by Gonzalez and Tsien (See, Gonzalez, J. E. and R. Y. Tsien (1995) “Voltage sensing by fluorescence resonance energy transfer in single cells” Biophys J 69(4): 1272-80, and Gonzalez, J. E. and R. Y. Tsien (1997) “Improved indicators of cell membrane potential that use fluorescence resonance energy transfer” Chem Biol 4(4): 269-77) in combination with instrumentation for measuring fluorescence changes such as the Voltage/Ion Probe Reader (VIPR) (See, […]. Oades, et al. (1999) “Cell-based assays and instrumentation for screening ion-channel targets” Drug Discov Today 4(9): 431-439). These voltage sensitive assays are based on the change in fluorescence resonant energy transfer (FRET) between the membrane-soluble, voltage-sensitive dye, DiSBAC2(3), and a fluorescent phospholipid, CC2-DMPE, which is attached to the outer leaflet of the plasma membrane and acts as a FRET donor. Changes in membrane potential (Vm) cause the negatively charged DiSBAC2(3) to redistribute across the plasma membrane and the amount of energy transfer from CC2-DMPE changes accordingly. The changes in fluorescence emission were monitored using VIPR which is an integrated liquid handler and fluorescent detector designed to conduct cell-based screens in 96- or 384-well microtiter plates. To identify potentiators of ΔF508-CFTR, a double-addition HTS assay format was developed. During the first addition, a Cl^--free medium with or without test compound was added to each well. […] (in mM) NaCl 160, KCl 4.5, CaCl2 2, MgCl2 1, HEPES 10, pH 7.4 with NaOH. • Chloride-free bath solution: Chloride salts in Bath Solution #1 are substituted with gluconate salts. • CC2-DMPE: Prepared as a 10 mM stock solution in DMSO and stored at -20° C. • DiSBAC2(3): Prepared as a 10 mM stock in DMSO and stored at -20° C. NIH3T3 mouse fibroblasts stably expressing ΔF508-CFTR are used for optical measurements of membrane potential. […] For all optical assays, the cells were seeded at 30,000/well in 384-well matrigel-coated plates and cultured for 2 hrs at 37° C. before culturing at 27° C. for 24 hrs. for the potentiator assay.

T1 sequence (P13569 with tags, fused parts or gaps DEL508-508): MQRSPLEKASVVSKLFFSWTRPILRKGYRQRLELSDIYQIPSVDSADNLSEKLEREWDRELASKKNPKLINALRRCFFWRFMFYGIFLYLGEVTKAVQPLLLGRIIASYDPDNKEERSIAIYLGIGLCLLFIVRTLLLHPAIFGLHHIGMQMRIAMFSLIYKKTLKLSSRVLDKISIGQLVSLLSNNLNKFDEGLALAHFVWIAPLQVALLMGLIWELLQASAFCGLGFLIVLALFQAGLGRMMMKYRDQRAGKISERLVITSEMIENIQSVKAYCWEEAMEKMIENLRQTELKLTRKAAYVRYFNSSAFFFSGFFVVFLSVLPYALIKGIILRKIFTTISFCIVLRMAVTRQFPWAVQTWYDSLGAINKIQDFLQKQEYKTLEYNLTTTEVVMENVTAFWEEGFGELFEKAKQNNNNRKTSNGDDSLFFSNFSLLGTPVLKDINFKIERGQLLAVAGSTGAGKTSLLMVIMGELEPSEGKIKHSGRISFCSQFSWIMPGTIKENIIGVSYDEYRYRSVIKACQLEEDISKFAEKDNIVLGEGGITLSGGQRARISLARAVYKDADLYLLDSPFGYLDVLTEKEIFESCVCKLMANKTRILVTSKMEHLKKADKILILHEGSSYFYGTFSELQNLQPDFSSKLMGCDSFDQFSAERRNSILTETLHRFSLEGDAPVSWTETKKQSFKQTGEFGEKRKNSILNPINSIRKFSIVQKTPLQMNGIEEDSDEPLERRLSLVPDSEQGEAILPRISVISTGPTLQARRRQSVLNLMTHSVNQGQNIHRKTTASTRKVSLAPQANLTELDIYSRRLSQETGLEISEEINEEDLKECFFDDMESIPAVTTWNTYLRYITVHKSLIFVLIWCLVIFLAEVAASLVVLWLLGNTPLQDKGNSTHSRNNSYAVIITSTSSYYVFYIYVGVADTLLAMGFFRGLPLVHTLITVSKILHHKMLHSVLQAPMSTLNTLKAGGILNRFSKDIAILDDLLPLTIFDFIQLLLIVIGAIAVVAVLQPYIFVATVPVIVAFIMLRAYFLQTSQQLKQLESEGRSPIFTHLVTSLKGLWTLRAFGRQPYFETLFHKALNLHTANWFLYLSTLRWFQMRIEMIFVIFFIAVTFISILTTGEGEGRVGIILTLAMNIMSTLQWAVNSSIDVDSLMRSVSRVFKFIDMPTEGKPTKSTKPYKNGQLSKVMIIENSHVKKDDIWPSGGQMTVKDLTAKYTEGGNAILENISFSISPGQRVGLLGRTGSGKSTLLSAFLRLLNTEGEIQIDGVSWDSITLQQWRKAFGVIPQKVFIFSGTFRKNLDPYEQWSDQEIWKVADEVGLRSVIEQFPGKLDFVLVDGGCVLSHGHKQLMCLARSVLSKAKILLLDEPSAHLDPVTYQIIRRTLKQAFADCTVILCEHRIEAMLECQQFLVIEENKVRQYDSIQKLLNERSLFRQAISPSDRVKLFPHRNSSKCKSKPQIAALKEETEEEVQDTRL

| EC50 | % Activity | SMILES |
| --- | --- | --- |
| < 10 µM | ++ (between 25% to 100%) | Nc1nc2ccc(NC(=O)c3c[nH]c4ccccc4c3=O)cc2s1 [Compound 671, N-(2-aminobenzothiazol-6-yl)-4-oxo-1H-quinoline-3-carboxamide] |
| 25 to 60 µM | + (<25%) | Cc1ccc2c(c1)c(=O)c(C(=O)Nc1ccccc1-c1ccccc1)cn2C [Compound 128, 1,6-dimethyl-4-oxo-N-(2-phenylphenyl)-1H-quinoline-3-carboxamide] |
| 10 to 25 µM | ++ (between 25% to 100%) | O=C(Nc1ccccc1-c1ccc(CO)cc1)c1c[nH]c2ccccc2c1=O [Compound 302, N-[2-[4-(hydroxymethyl)phenyl]phenyl]-4-oxo-1H-quinoline-3-carboxamide] |
| 10 to 25 µM | ++ (between 25% to 100%) | CCOC(=O)NC1CCCc2ccc(NC(=O)c3c[nH]c4ccccc4c3=O)cc21 (stereo not shown) [Compound 482, [7-[(4-Oxo-1H-quinolin-3-yl)carbonylamino]tetralin-1-yl]aminoformic acid ethyl ester] |
| < 10 µM | ++ (between 25% to 100%) | O=C(Nc1ccccc1SC(F)(F)F)c1c[nH]c2ccccc2c1=O [Compound 371, 4-oxo-N-[2-(trifluoromethylsulfanyl)phenyl]-1H-quinoline-3-carboxamide] |
| < 10 µM | ++ (between 25% to 100%) | O=C(Nc1ccc(OC(F)(F)F)c(N2CCCC2)c1)c1c[nH]c2ccccc2c1=O [Compound 579, 4-oxo-N-[3-pyrrolidin-1-yl-4-(trifluoromethoxy)phenyl]-1H-quinoline-3-carboxamide] |
| < 10 µM | ++ (between 25% to 100%) | Cc1ccccc1Oc1ccccc1NC(=O)c1c[nH]c2ccccc2c1=O [Compound 20, N-[2-(2-methylphenoxy)phenyl]-4-oxo-1H-quinoline-3-carboxamide] |
| < 10 µM | ++ (between 25% to 100%) | O=C(Nc1ccc(N2CCC2)cc1C(F)(F)F)c1c[nH]c2ccccc2c1=O [Compound 689, N-[4-azetidin-1-yl-2-(trifluoromethyl)phenyl]-4-oxo-1H-quinoline-3-carboxamide] |
| < 10 µM | ++ (between 25% to 100%) | CC(C)c1ccc(NC(=O)c2c[nH]c3ccc(Cl)cc3c2=O)c(C(F)(F)F)c1 [Compound 657, 6-chloro-N-[4-isopropyl-2-(trifluoromethyl)phenyl]-4-oxo-1H-quinoline-3-carboxamide] |
| < 10 µM | ++ (between 25% to 100%) | CC(C)(C)c1cc(C(C)(C)C)c(NC(=O)c2c[nH]c3c(F)cccc3c2=O)cc1O [Compound 687, 8-fluoro-N-(5-hydroxy-2,4-ditert-butyl-phenyl)-4-oxo-1H-quinoline-3-carboxamide] |
| < 10 µM | ++ (between 25% to 100%) | CCOC(=O)Nc1cc(NC(=O)c2c[nH]c3ccccc3c2=O)ccc1C(C)C [Compound 225, [2-isopropyl-5-[(4-oxo-1H-quinolin-3-yl)carbonylamino]phenyl]aminoformic acid ethyl ester] |
| < 10 µM | ++ (between 25% to 100%) | CC(C)c1c[nH]c2cc(NC(=O)c3c[nH]c4ccccc4c3=O)ccc12 [Compound 357, N-(3-isopropyl-1H-indol-6-yl)-4-oxo-1H-quinoline-3-carboxamide] |
| < 10 µM | ++ (between 25% to 100%) | CC(C)c1cc(C(F)(F)F)c(NC(=O)c2c[nH]c3ccccc3c2=O)cc1OCc1ccccc1 [Compound 570, N-[5-benzyloxy-4-isopropyl-2-(trifluoromethyl)phenyl]-4-oxo-1H-quinoline-3-carboxamide] |
| 10 to 25 µM | ++ (between 25% to 100%) | COC(=O)NC1CCCc2ccc(NC(=O)c3c[nH]c4ccccc4c3=O)cc21 (stereo not shown) [Compound 159, [7-[(4-Oxo-1H-quinolin-3-yl)carbonylamino]tetralin-1-yl]aminoformic acid methyl ester] |
